The supplement of paper PMC7661543
± gives the standard deviation of the averaged measurements.

Each compound was assayed on ZR-75-1 (assay: relative cell number vs DMSO control (72 h) (% of DMSO); higher = less growth inhibition (more cells)). Conditions: sgRNA knockout: sgNT, 100 nM.
Method: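 QMAP-Seq: a pool of 5 breast cancer cell lines (ZR-75-1, SKBR3, HCC-38, MDA-MB-231, BT-20), each carrying 12 doxycycline-inducible Cas9 sgRNA perturbations (11 knockouts plus non-targeting sgNT), was treated with compounds for 72 h at four 10-fold doses (10 nM-10 uM or 1 nM-1 uM range). Barcodes were amplified and sequenced, and cell number was interpolated from 293T spike-in standard curves. The result is expressed as % of the median of DMSO wells. Two biological replicates.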
`C=C1C(=O)O[C@H]2[C@H]1CC/C(C)=C/CC[C@@]1(C)O[C@@H]21` [Parthenolide] gave a relative cell number of 128 ± 21. `COc1cc(/C=C/C(=O)CC(=O)/C=C/c2ccc(O)c(OC)c2)ccc1O` [Curcumin] showed a relative cell number of 84.5 ± 52. Work on `Nc1nc(OCc2cc(Br)cs2)c2[nH]cnc2n1` [Lomeguatrib] yielded a relative cell number of 127 ± 3.4. In the case of `C=C(c1ccc(C(=O)O)cc1)c1cc2c(cc1C)C(C)(C)CCC2(C)C` [Bexarotene], the relative cell number is reported as 78.4 ± 27. `Clc1ccc(C2(c3ccc(-c4cn[nH]c4)cc3)CCNCC2)cc1` [AT7867] gave a relative cell number of 64.4 ± 20. `CS(=O)(=O)c1cccc(CNc2nc(Nc3ccc4c(c3)CCC(=O)N4)ncc2C(F)(F)F)c1` was tested, and the relative cell number was 170 ± 92. `N#Cc1ccc(COC[C@H]2O[C@@H](n3c(NCc4ccc(Cl)c(Cl)c4)nc4c(N)ncnc43)[C@H](O)[C@@H]2O)cc1` gave a relative cell number of 90.5 ± 13. `CN(Cc1cnc2nc(N)nc(N)c2n1)c1ccc(C(=O)N[C@@H](CCC(=O)O)C(=O)O)cc1` [Methotrexate] showed a relative cell number of 38.6 ± 12. `CC(C)CC(=O)Nc1n[nH]c2c1CN(C(=O)C1CCN(C)CC1)C2(C)C` showed a relative cell number of 60.4 ± 13. `CCCc1nn(C)c2c(=O)[nH]c(-c3cc(S(=O)(=O)N4CCN(C)CC4)ccc3OCC)nc12` [Sildenafil] showed a relative cell number of 117 ± 58. In the case of `O=C1CCC(N2C(=O)c3ccccc3C2=O)C(=O)N1` (stereo not drawn) [Thalidomide], the relative cell number is reported as 90.8 ± 6.8. In the case of `CC(C)(C(=O)NCC(F)(F)C(F)(F)F)C(=O)N[C@@H]1C(=O)Nc2ccccc2-c2ccccc21`, the relative cell number is reported as 130 ± 2.6. In the case of `CC[C@@]1(O)C(=O)OCc2c1cc1n(c2=O)Cc2cc3c(CN(C)C)c(O)ccc3nc2-1` [Topotecan], the relative cell number is reported as 37 ± 5.1. `C=CC(=O)Nc1cc2c(Nc3ccc(F)c(Cl)c3)ncnc2cc1OCCCN1CCOCC1` [Canertinib] gave a relative cell number of 113 ± 22.

Same assay, conditions: sgRNA knockout: sgNT, 1000 nM
With `FC(F)c1nc2ccccc2n1-c1nc(N2CCOCC2)nc(N2CCOCC2)n1` [ZSTK474] the relative cell number was 53.6 ± 27. In the case of `Cc1nc(Nc2ncc(C(=O)Nc3c(C)cccc3Cl)s2)cc(N2CCN(CCO)CC2)n1` [Dasatinib], the relative cell number is reported as 65.4 ± 11. In the case of `CN/C(=N\CCSCc1nc[nH]c1C)NC#N` [Cimetidine], the relative cell number is reported as 101 ± 17. With `CC(C)C[C@H](NC(=O)[C@H](Cc1ccccc1)NC(=O)c1cnccn1)B(O)O` [Bortezomib] the relative cell number was 13.4 ± 2.8. Compound `COc1cc(CCc2cc(NC(=O)c3ccc(N4CC(C)NC(C)C4)cc3)n[nH]2)cc(OC)c1` (stereo not drawn) [AZD4547] has a relative cell number of 83.9 ± 5.3. For `CC(C)(C)c1ccc(S(=O)(=O)NCc2ccc(C(=O)Nc3cccnc3)cc2)cc1` [STF31], the relative cell number was 50.2 ± 2. Work on `CCC[C@H](NC(=O)/C(C#N)=C/c1cccc(Br)n1)c1ccccc1` [WP1130] yielded a relative cell number of 92.2 ± 22. Work on `O=[N+]([O-])c1ccc(O)c2ncccc12` [Nitroxoline] yielded a relative cell number of 97.4 ± 51. With `O=C1c2c(O)ccc(O)c2C(=O)c2c(NCCNCCO)ccc(NCCNCCO)c21` [Mitoxantrone] the relative cell number was 13.4 ± 1.2. With `N[C@@H](CC(=O)N1CCn2c(nnc2C(F)(F)F)C1)Cc1cc(F)c(F)cc1F` [Sitagliptin] the relative cell number was 124 ± 34. `CC(C)[C@H](O)C(=O)N[C@@H](C)C(=O)N[C@@H]1C(=O)N(C)CCc2ccccc21` [Semagacestat] was tested, and the relative cell number was 89.7 ± 24. `C=C1C(=O)O[C@H]2[C@H]1CC/C(C)=C/CC[C@@]1(C)O[C@@H]21` [Parthenolide] gave a relative cell number of 71.5 ± 53. For `COc1cc(/C=C/C(=O)CC(=O)/C=C/c2ccc(O)c(OC)c2)ccc1O` [Curcumin], the relative cell number was 112 ± 46. Compound `Nc1nc(OCc2cc(Br)cs2)c2[nH]cnc2n1` [Lomeguatrib] has a relative cell number of 78.2 ± 47. Compound `C=C(c1ccc(C(=O)O)cc1)c1cc2c(cc1C)C(C)(C)CCC2(C)C` [Bexarotene] has a relative cell number of 72.2 ± 19. For `Clc1ccc(C2(c3ccc(-c4cn[nH]c4)cc3)CCNCC2)cc1` [AT7867], the relative cell number was 66.2 ± 5.2. `CS(=O)(=O)c1cccc(CNc2nc(Nc3ccc4c(c3)CCC(=O)N4)ncc2C(F)(F)F)c1` gave a relative cell number of 80.9 ± 4.7. For `N#Cc1ccc(COC[C@H]2O[C@@H](n3c(NCc4ccc(Cl)c(Cl)c4)nc4c(N)ncnc43)[C@H](O)[C@@H]2O)cc1`, the relative cell number was 64.7 ± 41. `CN(Cc1cnc2nc(N)nc(N)c2n1)c1ccc(C(=O)N[C@@H](CCC(=O)O)C(=O)O)cc1` [Methotrexate] was tested, and the relative cell number was 40.6 ± 11. `CC(C)CC(=O)Nc1n[nH]c2c1CN(C(=O)C1CCN(C)CC1)C2(C)C` was tested, and the relative cell number was 31.4 ± 19. `CCCc1nn(C)c2c(=O)[nH]c(-c3cc(S(=O)(=O)N4CCN(C)CC4)ccc3OCC)nc12` [Sildenafil] gave a relative cell number of 86.3 ± 26. Work on `O=C1CCC(N2C(=O)c3ccccc3C2=O)C(=O)N1` (stereo not drawn) [Thalidomide] yielded a relative cell number of 74.2 ± 13. In the case of `CC(C)(C(=O)NCC(F)(F)C(F)(F)F)C(=O)N[C@@H]1C(=O)Nc2ccccc2-c2ccccc21`, the relative cell number is reported as 92.1 ± 1.7. `CC[C@@]1(O)C(=O)OCc2c1cc1n(c2=O)Cc2cc3c(CN(C)C)c(O)ccc3nc2-1` [Topotecan] was tested, and the relative cell number was 14 ± 5.7. With `C=CC(=O)Nc1cc2c(Nc3ccc(F)c(Cl)c3)ncnc2cc1OCCCN1CCOCC1` [Canertinib] the relative cell number was 63.6 ± 13.

Same assay, conditions: sgRNA knockout: sgNT, 10000 nM
`FC(F)c1nc2ccccc2n1-c1nc(N2CCOCC2)nc(N2CCOCC2)n1` [ZSTK474] gave a relative cell number of 50 ± 12. `Cc1nc(Nc2ncc(C(=O)Nc3c(C)cccc3Cl)s2)cc(N2CCN(CCO)CC2)n1` [Dasatinib] was tested, and the relative cell number was 35.9 ± 0.91. `CN/C(=N\CCSCc1nc[nH]c1C)NC#N` [Cimetidine] showed a relative cell number of 133 ± 39. In the case of `COc1cc(CCc2cc(NC(=O)c3ccc(N4CC(C)NC(C)C4)cc3)n[nH]2)cc(OC)c1` (stereo not drawn) [AZD4547], the relative cell number is reported as 21.3 ± 10. `CC(C)(C)c1ccc(S(=O)(=O)NCc2ccc(C(=O)Nc3cccnc3)cc2)cc1` [STF31] gave a relative cell number of 63.1 ± 33. `CCC[C@H](NC(=O)/C(C#N)=C/c1cccc(Br)n1)c1ccccc1` [WP1130] showed a relative cell number of 6.81 ± 2.8. `O=[N+]([O-])c1ccc(O)c2ncccc12` [Nitroxoline] showed a relative cell number of 33.4 ± 19. `O=C1c2c(O)ccc(O)c2C(=O)c2c(NCCNCCO)ccc(NCCNCCO)c21` [Mitoxantrone] gave a relative cell number of 7.6 ± 0.68. `N[C@@H](CC(=O)N1CCn2c(nnc2C(F)(F)F)C1)Cc1cc(F)c(F)cc1F` [Sitagliptin] was tested, and the relative cell number was 96.5 ± 5.2. `CC(C)[C@H](O)C(=O)N[C@@H](C)C(=O)N[C@@H]1C(=O)N(C)CCc2ccccc21` [Semagacestat] showed a relative cell number of 132 ± 19. Compound `C=C1C(=O)O[C@H]2[C@H]1CC/C(C)=C/CC[C@@]1(C)O[C@@H]21` [Parthenolide] has a relative cell number of 122 ± 3.6. With `COc1cc(/C=C/C(=O)CC(=O)/C=C/c2ccc(O)c(OC)c2)ccc1O` [Curcumin] the relative cell number was 72.5 ± 0.98. Compound `Nc1nc(OCc2cc(Br)cs2)c2[nH]cnc2n1` [Lomeguatrib] has a relative cell number of 74.8 ± 5.2. With `C=C(c1ccc(C(=O)O)cc1)c1cc2c(cc1C)C(C)(C)CCC2(C)C` [Bexarotene] the relative cell number was 70.3 ± 5.1. With `Clc1ccc(C2(c3ccc(-c4cn[nH]c4)cc3)CCNCC2)cc1` [AT7867] the relative cell number was 11.1 ± 1.7. `CS(=O)(=O)c1cccc(CNc2nc(Nc3ccc4c(c3)CCC(=O)N4)ncc2C(F)(F)F)c1` showed a relative cell number of 45.1 ± 2.2. For `N#Cc1ccc(COC[C@H]2O[C@@H](n3c(NCc4ccc(Cl)c(Cl)c4)nc4c(N)ncnc43)[C@H](O)[C@@H]2O)cc1`, the relative cell number was 39.1 ± 0.67. With `CN(Cc1cnc2nc(N)nc(N)c2n1)c1ccc(C(=O)N[C@@H](CCC(=O)O)C(=O)O)cc1` [Methotrexate] the relative cell number was 36.9 ± 8. With `CC(C)CC(=O)Nc1n[nH]c2c1CN(C(=O)C1CCN(C)CC1)C2(C)C` the relative cell number was 23.7 ± 10. With `CCCc1nn(C)c2c(=O)[nH]c(-c3cc(S(=O)(=O)N4CCN(C)CC4)ccc3OCC)nc12` [Sildenafil] the relative cell number was 57.6 ± 2.1. `O=C1CCC(N2C(=O)c3ccccc3C2=O)C(=O)N1` (stereo not drawn) [Thalidomide] was tested, and the relative cell number was 97.2 ± 55. `CC(C)(C(=O)NCC(F)(F)C(F)(F)F)C(=O)N[C@@H]1C(=O)Nc2ccccc2-c2ccccc21` gave a relative cell number of 103 ± 30. For `CC[C@@]1(O)C(=O)OCc2c1cc1n(c2=O)Cc2cc3c(CN(C)C)c(O)ccc3nc2-1` [Topotecan], the relative cell number was 11.8 ± 9.3. `C=CC(=O)Nc1cc2c(Nc3ccc(F)c(Cl)c3)ncnc2cc1OCCCN1CCOCC1` [Canertinib] showed a relative cell number of 41.2 ± 9.9.
